PMC12140300, “Development of Carbon‐11 Labeled Pyrimidine Derivatives as Novel Positron Emission Tomography (PET) Agents Enabling Brain Sigma‐1 Receptor Imaging” (Advanced Science, 2025)

Test system: σ1R
Experiment: NHP PET/MR imaging with kinetic modelling, baseline and self-blocking
Type: in vivo
Details: for VT, One tissue compartment model [1TCM] / VT, Two tissue compartment model [2TCM] / VT, Logan graphical method [T* = 40 min]: male NHP brain
Source text: Next, we conducted PET/MR imaging studies using [^11C]CNY‐01 in non‐human primates (NHP) to evaluate its safety and translational potential in large animals further. A 90‐minute dynamic PET scan with [^11C]CNY‐01 focusing on the head of a male rhesus monkey. We performed a full kinetic analysis with one‐ and two‐tissue compartment models (1TCM and 2TCM), as well as logan graphical analysis (LGA), using metabolite‐corrected arterial input function (AIF), similar to previous studies,^[ [44], [45] ^] to determine which model best suit kinetics of [^11C]CNY‐01. In most brain regions, 2TCM provided a better fit than 1TCM, as indicated by the Akaike information criterion (AIC) and model selection criterion (MSC) (Table 1). […] To test whether non‐parametric graphical approaches can be used for [^11C]CNY‐01, we performed LGA with an assumption of steady‐state time (T*) of 40 mins (Table 1). […] For voxel‐wise estimation of VT across the whole brain, we then used LGA (Figure 4A).
We also performed a self‐blocking scan for [^11C]CNY‐01, administering 0.5 mg kg^−1 of unlabeled CNY‐01 10 min before the radiotracer. The metabolism of the radiotracer in the blocking scan was similar to that of the baseline (Figure S6, Supporting Information). The radioactivity concentration was lower in arterial blood samples in the blocking scan compared to the baseline, while brain uptake was higher in the blocking scan (Figure S6, Supporting Information). […] The variation of the radiotracer plasma protein binding (fp) between baseline and blocking scan may explain our observation in a way similar to that of the previous study.^[ [46] ^] Nonetheless, due to this study's lack of fp data, the exact explanation for our observation remains to be determined further.
The PET/MR imaging protocol in non‐human primates (NHP) followed our previous work.^[ [55], [56] ^] A male rhesus macaque (8.55 kg) was anesthetized with an intramuscular injection of xylazine (0.5–2.0 mg kg^−1) and ketamine (10 mg kg^−1), followed by endotracheal intubation. V‐ and A‐lines were inserted, and anesthesia was maintained using isoflurane. [^11C] CNY‐01 was administered after antecubital catheterization, with an arterial line prepared for radiometabolite analysis. In the self‐blocking scan, the same animal (6.80 kg) was scanned with a 10‐min pre‐treatment of 0.5 mg kg^−1 unlabeled CNY‐01. PET/MR imaging data were acquired using a Siemens TIM‐Trio scanner (3T) equipped with a Siemens BrainPET insert module and an in‐house‐built 8‐channel head coil. The dynamic scan began, followed by administration of [^11C] CNY‐01 (5.1 mCi). The list mode data were reconstructed using the 3D ordinary Poisson expectation‐maximization algorithm (16 subsets and 6 iterations) with detector efficiency, decay, dead time, random coincidences, scatter, and attenuation corrections with gradually increasing time frams. All images were reconstructed into 153 slices with 256 × 256 pixels and 1.25‐mm isotropic voxel size. High‐resolution structural MRI scans were acquired by using a multi‐echo magnetization‐prepared rapid gradient echo (ME‐MPRAGE) sequence with parameters as follows: TR = 2400 ms; TE1/TE2/TE3/TE4 = 1.57/3.29/5.01/6.73 ms; inversion time = 1200 ms; flip angle = 9°; spatial resolution = 1 mm isotropic.
For macaque brain PET/MR imaging analysis, we applied the INIA19 Template^[ [57] ^] and NeuroMaps Atlas in accordance with our prior work.^[ [58] ^] In brief, reconstructed PET images were registered to the INIA19 Primate Brain Atlas^[ [57] ^] with the following processing steps^[ [59] ^]: The high‐resolution T1‐weighted MR image, co‐registered with the PET image, was first affine‐registered to the INIA19 atlas. By using the same transformation, dynamic PET data was registered to the atlas. A spatial smoothing with a 6‐mm FWHM Gaussian kernel was applied to PET images. Twenty ROIs determined in the INIA19 atlas were used to derive regional TACs. […]

[1] = NAc, 10-min pretreatment of unlabeled CNY-01 (0.5 mg kg^−1)
[2] = Occg, 10-min pretreatment of unlabeled CNY-01 (0.5 mg kg^−1)
[3] = Ofc, 10-min pretreatment of unlabeled CNY-01 (0.5 mg kg^−1)
[4] = PCC, 10-min pretreatment of unlabeled CNY-01 (0.5 mg kg^−1)
[5] = Putamen, 10-min pretreatment of unlabeled CNY-01 (0.5 mg kg^−1)
[6] = Sensory, 10-min pretreatment of unlabeled CNY-01 (0.5 mg kg^−1)
[7] = Thalamus, 10-min pretreatment of unlabeled CNY-01 (0.5 mg kg^−1)
[8] = VTA, 10-min pretreatment of unlabeled CNY-01 (0.5 mg kg^−1)
[9] = WB, 10-min pretreatment of unlabeled CNY-01 (0.5 mg kg^−1)
[10] = WM, 10-min pretreatment of unlabeled CNY-01 (0.5 mg kg^−1)

Cc1nc(-c2ccc(O[11CH3])cc2)nc(OCCCN2CCCCC2)c1Cl [[^11C]CNY-01]
VT, One tissue compartment model [1TCM] (Motor, baseline): 6.97 mL cm^−3
VT, Two tissue compartment model [2TCM] (Motor, baseline): 8.88 mL cm^−3
VT, Logan graphical method [T* = 40 min] [1]: 33.22 ml/cm^3
VT, Two tissue compartment model [2TCM] [1]: 26.92 ml/cm^3
VT, Logan graphical method [T* = 40 min] (NAc, baseline): 13.11 mL cm^−3
VT, One tissue compartment model [1TCM] (NAc, baseline): 9.85 mL cm^−3
VT, Two tissue compartment model [2TCM] (NAc, baseline): 11.85 mL cm^−3
nonspecific binding in blockage experiments (NHP): high nonspecific binding
binding to target within the imaging timeframe (NHP, speculated from pharmacokinetic characteristics): predominantly irreversible
VT, Logan graphical method [T* = 40 min] [2]: 12.96 ml/cm^3
VT, Two tissue compartment model [2TCM] [2]: 11.84 ml/cm^3
VT, Logan graphical method [T* = 40 min] (Occg, baseline): 7.07 mL cm^−3
VT, One tissue compartment model [1TCM] (Occg, baseline): 5.24 mL cm^−3
VT, Two tissue compartment model [2TCM] (Occg, baseline): 6.28 mL cm^−3
VT, Logan graphical method [T* = 40 min] [3]: 20.65 ml/cm^3
VT, Two tissue compartment model [2TCM] [3]: 16.68 ml/cm^3
VT, Logan graphical method [T* = 40 min] (Ofc, baseline): 9.72 mL cm^−3
VT, One tissue compartment model [1TCM] (Ofc, baseline): 7.31 mL cm^−3
VT, Two tissue compartment model [2TCM] (Ofc, baseline): 9.24 mL cm^−3
VT, Logan graphical method [T* = 40 min] [4]: 27.31 ml/cm^3
VT, Two tissue compartment model [2TCM] [4]: 23.16 ml/cm^3
VT, Logan graphical method [T* = 40 min] (PCC, baseline): 12.38 mL cm^−3
VT, One tissue compartment model [1TCM] (PCC, baseline): 9.29 mL cm^−3
VT, Two tissue compartment model [2TCM] (PCC, baseline): 14.68 mL cm^−3
VT, Logan graphical method [T* = 40 min] [5]: 33.81 ml/cm^3
VT, Two tissue compartment model [2TCM] [5]: 27.99 ml/cm^3
VT, Logan graphical method [T* = 40 min] (Putamen, baseline): 15.02 mL cm^−3
VT, One tissue compartment model [1TCM] (Putamen, baseline): 11.56 mL cm^−3
VT, Two tissue compartment model [2TCM] (Putamen, baseline): 15.75 mL cm^−3
VT, Logan graphical method [T* = 40 min] [6]: 19.24 ml/cm^3
VT, Two tissue compartment model [2TCM] [6]: 16.21 ml/cm^3
VT, Logan graphical method [T* = 40 min] (Sensory, baseline): 8.75 mL cm^−3
VT, One tissue compartment model [1TCM] (Sensory, baseline): 6.73 mL cm^−3
VT, Two tissue compartment model [2TCM] (Sensory, baseline): 9.33 mL cm^−3
VT, Logan graphical method [T* = 40 min] [7]: 30.88 ml/cm^3
VT, Two tissue compartment model [2TCM] [7]: 25.02 ml/cm^3
VT, Logan graphical method [T* = 40 min] (Thalamus, baseline): 15.50 mL cm^−3
VT, One tissue compartment model [1TCM] (Thalamus, baseline): 10.94 mL cm^−3
VT, Two tissue compartment model [2TCM] (Thalamus, baseline): 19.46 mL cm^−3
VT, Logan graphical method [T* = 40 min] [8]: 26.74 ml/cm^3
VT, Two tissue compartment model [2TCM] [8]: 19.47 ml/cm^3
VT, Logan graphical method [T* = 40 min] (VTA, baseline): 12.11 mL cm^−3
VT, One tissue compartment model [1TCM] (VTA, baseline): 8.25 mL cm^−3
VT, Two tissue compartment model [2TCM] (VTA, baseline): 11.16 mL cm^−3
VT, Two tissue compartment model [2TCM] (WB (whole brain), baseline): 10.35 mL cm^−3
VT, Logan graphical method [T* = 40 min] [9]: 20.75 ml/cm^3
VT, Two tissue compartment model [2TCM] [9]: 16.75 ml/cm^3
VT, Logan graphical method [T* = 40 min] (WB, baseline): 9.82 mL cm^−3
VT, One tissue compartment model [1TCM] (WB, baseline): 7.44 mL cm^−3
VT, Two tissue compartment model [2TCM] (WM (white matter), baseline): 15.00 mL cm^−3
VT, Logan graphical method [T* = 40 min] [10]: 25.98 ml/cm^3
VT, Two tissue compartment model [2TCM] [10]: 21.29 ml/cm^3
VT, Logan graphical method [T* = 40 min] (WM, baseline): 11.98 mL cm^−3
VT, One tissue compartment model [1TCM] (WM, baseline): 9.00 mL cm^−3
